One experiment deals with MCA205 fibrosarcoma. As to the kind of experiment: Anticancer vaccination with lurbinectedin-treated dying MCA205 cells and rechallenge. The experiment is classed as in vivo, immunocompetent C57BL/6 mice. To be noted: MCA205 cells treated with 1 μM lurbinectedin injected s.c., rechallenge with live cells one week later. As for the experimental part:
MCA205 cells treated for 20 h with 1 μM lurbinectedin were inoculated subcutaneously (s.c.) into immunocompetent C57BL/6 mice, which were rechallenged 7 days later s.c. with living cells of the same type. The tumour growth was measured until endpoints were reached and overall survival was evaluated regularly for the following 30 days (n=6). (*p<. 01, two-tailed Student's t test, compared to all other groups). Data were analyzed with TumGrowth.
(§1) In order to assess the capacity of lurbinectedin to stimulate anticancer immunity in a monotherapeutic approach and to convert tumour cells into a therapeutic vaccine we exposed murine fibrosarcoma cells to the drug in vitro (in conditions previously established to induce a sufficient amplitude of cell death) and then injected the dying cancer cells into syngeneic immunocompetent mice. […] Next we evaluated the effect of lurbinectedin on established cancers growing on immunocompetent or immunodeficient mice. […]
(§2) Six- to eight-week-old female wild-type C57BL/6 and nu/nu mice were obtained from Envigo France (Huntingdon, UK) and were kept in the animal facility at the Gustave Roussy Campus Cancer in a specific pathogen-free and temperature-controlled environment with 12 h day, 12 h night cycles and received food and water ad libitum. […] Animals were monitored and tumour growth documented regularly until end-points were reached. […]

The subject of a further experiment is MCA205 tumours. As to the kind of experiment: Established MCA205 tumours in immunocompetent mice. To be noted: immunocompetent C57BL/6, 0.18 mg/kg i.v. day 1, 7 and 14. Format: in vivo, immunocompetent C57BL/6 mice. As for the experimental part: Live MCA205 cells were injected subcutaneously (s.c.) into immunocompetent C57BL/6 mice or immunodeficient nu/nu mice as depicted in the scheme in (a) When tumours became palpable, mice were intravenously (i.v.) injected with […] lurbinectedin (on day 1, 7 and 14). Tumour growth was assessed regularly for the following 30 days. Data is depicted as tumour growth curves (b,d) and overall survival plots (c,e). Data were analyzed with TumGrowth.
as §1, §2

Experiment [1] relates to Murine fibrosarcoma MCA205 cells. As to the kind of experiment: In vitro cell death of MCA205 cells prepared for vaccination. Format: cell-based, mouse. To be noted: 1 μM lurbinectedin for 24 h.

For the compound `COc1ccc2[nH]c3c(c2c1)CCN[C@]31CS[C@@H]2c3c(OC(C)=O)c(C)c4c(c3[C@H](COC1=O)N1[C@@H]2[C@H]2c3c(cc(C)c(OC)c3O)C[C@@H]([C@@H]1O)N2C)OCO4` [lurbinectedin], in the experiment on MCA205 fibrosarcoma, the “overall survival after rechallenge” value is listed as “increase”. In the experiment with MCA205 fibrosarcoma (p=0.0094), the “tumour growth after rechallenge” value is on record as “significantly reduced”. In the experiment with MCA205 tumours, the overall survival result is given as “increased”. In the experiment with MCA205 tumours (vs control animals, p<0.0001), the tumour growth entry was “significantly reduced”. Besides, the cell death result in experiment [1] was “approximately 70%”.

(Values after patent publication US20250295656A1, “COMBINATION OF LURBINECTEDIN AND IMMUNE CHECKPOINT INHIBITORS” (priority 2020, published 2025).)
